Measured values reported in PubChem BioAssay (NCI).
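48-hour exposure; five concentrations; linearly interpolated endpoints. GI50 is the concentration that inhibits growth by half. TGI is the concentration that stops growth completely.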

Tests used:
Test in all cases: NCI tumour cell line growth inhibition, 48 h
[1] = tested on: 786-0 renal
[2] = tested on: A498 renal
[3] = tested on: A549 NSCLC
[4] = tested on: ACHN renal
[5] = tested on: BT-549 breast
[6] = tested on: CAKI-1 renal
[7] = tested on: CCRF-CEM leukemia
[8] = tested on: COLO 205 colon
[9] = tested on: DU-145 prostate
[10] = tested on: EKVX NSCLC
[11] = tested on: HCC-2998 colon
[12] = tested on: HCT-116 colon
[13] = tested on: HCT-15 colon
[14] = tested on: HL-60(TB) leukemia
[15] = tested on: HOP-62 NSCLC
[16] = tested on: HOP-92 NSCLC
[17] = tested on: HS 578T breast
[18] = tested on: HT29 colon
[19] = tested on: IGROV1 ovarian
[20] = tested on: K-562 leukemia
[21] = tested on: KM12 colon
[22] = tested on: LOX IMVI melanoma
[23] = tested on: M14 melanoma
[24] = tested on: MALME-3M melanoma
[25] = tested on: MCF7 breast
[26] = tested on: MDA-MB-231 breast
[27] = tested on: MDA-MB-435
[28] = tested on: MDA-MB-468 breast
[29] = tested on: MOLT-4 leukemia
[30] = tested on: NCI-H226 lung
[31] = tested on: NCI-H23 lung
[32] = tested on: NCI-H460 lung
[33] = tested on: NCI-H522 lung
[34] = tested on: NCI/ADR-RES ovarian
[35] = tested on: OVCAR-3 ovarian
[36] = tested on: OVCAR-4 ovarian
[37] = tested on: OVCAR-5 ovarian
[38] = tested on: OVCAR-8 ovarian
[39] = tested on: PC-3 prostate
[40] = tested on: RPMI-8226 leukemia
[41] = tested on: RXF 393 renal
[42] = tested on: SF-268 CNS
[43] = tested on: SF-295 CNS
[44] = tested on: SF-539 CNS
[45] = tested on: SK-MEL-2 melanoma
[46] = tested on: SK-MEL-28 melanoma
[47] = tested on: SK-MEL-5 melanoma
[48] = tested on: SK-OV-3 ovarian
[49] = tested on: SN12C renal
[50] = tested on: SNB-19 CNS
[51] = tested on: SNB-75 CNS
[52] = tested on: SR leukemia
[53] = tested on: SW-620 colon
[54] = tested on: T-47D breast
[55] = tested on: TK-10 renal
[56] = tested on: U251 CNS
[57] = tested on: UACC-257 melanoma
[58] = tested on: UACC-62 melanoma
[59] = tested on: UO-31 renal

Cn1cc(-c2nnc(N)nc2-c2c[nH]c3ccccc23)c2cc(Br)cnc21
GI50 [1]: 9.51 µM
TGI [1]: 26.3 µM
GI50 [2]: 12.3 µM
TGI [2]: 24.8 µM
GI50 [3]: 12.7 µM
TGI [3]: 46.9 µM
GI50 [4]: 5.41 µM
TGI [4]: 19.2 µM
GI50 [5]: 5.94 µM
TGI [5]: 19.8 µM
GI50 [6]: 10.7 µM
TGI [6]: 22.5 µM
GI50 [7]: 4.8 µM
TGI [7]: 33.6 µM
GI50 [8]: 7.03 µM
TGI [8]: 21.1 µM
GI50 [9]: 14.5 µM
TGI [9]: 28.8 µM
GI50 [10]: 13.2 µM
TGI [10]: 28.5 µM
GI50 [11]: 10.1 µM
TGI [11]: 23.7 µM
GI50 [12]: 8.67 µM
TGI [12]: 21.2 µM
GI50 [13]: 4.68 µM
TGI [13]: 32 µM
GI50 [14]: 4.63 µM
TGI [14]: 34.6 µM
GI50 [15]: 9.73 µM
TGI [15]: 25.9 µM
GI50 [16]: 4.44 µM
TGI [16]: 24.1 µM
GI50 [17]: 4.92 µM
TGI [17]: 32 µM
GI50 [18]: 10 µM
TGI [18]: 27.3 µM
GI50 [19]: 2.6 µM
TGI [19]: 17.3 µM
GI50 [20]: 2.99 µM
TGI [20]: > 100 µM
GI50 [21]: 13.1 µM
TGI [21]: 27.6 µM
GI50 [22]: 5.19 µM
TGI [22]: 26.5 µM
GI50 [23]: 10.8 µM
TGI [23]: 23.9 µM
GI50 [24]: 8.27 µM
TGI [24]: 20.7 µM
GI50 [25]: 1.5 µM
TGI [25]: 15 µM
GI50 [26]: 7.8 µM
TGI [26]: 27.6 µM
GI50 [27]: 3.11 µM
TGI [27]: 10.4 µM
GI50 [28]: 2.38 µM
TGI [28]: 12.8 µM
GI50 [29]: 3.37 µM
TGI [29]: 27.3 µM
GI50 [30]: 12.2 µM
TGI [30]: 36.7 µM
GI50 [31]: 13.9 µM
TGI [31]: 36 µM
GI50 [32]: 5.02 µM
TGI [32]: 21 µM
GI50 [33]: 3.78 µM
TGI [33]: 21.6 µM
GI50 [34]: 10.7 µM
TGI [34]: 36.3 µM
GI50 [35]: 11.1 µM
TGI [35]: 23.4 µM
GI50 [36]: 7.09 µM
TGI [36]: 21.2 µM
GI50 [37]: 14.6 µM
TGI [37]: 29.8 µM
GI50 [38]: 12.5 µM
TGI [38]: 28.9 µM
GI50 [39]: 8.26 µM
TGI [39]: > 100 µM
GI50 [40]: 6.43 µM
TGI [40]: > 100 µM
GI50 [41]: 3.37 µM
TGI [41]: 20.3 µM
GI50 [42]: 10.7 µM
TGI [42]: 27.3 µM
GI50 [43]: 4.07 µM
TGI [43]: 17.5 µM
GI50 [44]: 10.7 µM
TGI [44]: 22.6 µM
GI50 [45]: 12.3 µM
TGI [45]: 27.1 µM
GI50 [46]: 10.9 µM
TGI [46]: 22.8 µM
GI50 [47]: 6.84 µM
TGI [47]: 19.8 µM
GI50 [48]: 16.6 µM
TGI [48]: 35.6 µM
GI50 [49]: 10.2 µM
TGI [49]: 22.2 µM
GI50 [50]: 12.2 µM
TGI [50]: 24.8 µM
GI50 [51]: 2.7 µM
TGI [51]: 15.6 µM
GI50 [52]: 1.54 µM
TGI [52]: 71.2 µM
GI50 [53]: 10 µM
TGI [53]: 23.3 µM
GI50 [54]: 4.12 µM
TGI [54]: 24.9 µM
GI50 [55]: 12.8 µM
TGI [55]: 26.8 µM
GI50 [56]: 10.5 µM
TGI [56]: 23.2 µM
GI50 [57]: 13.4 µM
TGI [57]: 27.1 µM
GI50 [58]: 3.14 µM
TGI [58]: 16.8 µM
TGI [59]: 14.8 µM
